From paper PMC11643077, “Synthesis of 1,2,4-Oxadiazin-5(6H)-One Derivatives and Their Biological Investigation as Monoamine Oxidase Inhibitors” (Molecules, 2024)

Target: T1, MAO-B (Homo sapiens, UniProt P27338)
T1 construct: purchased Merck
T1 sequence (P27338 1-520): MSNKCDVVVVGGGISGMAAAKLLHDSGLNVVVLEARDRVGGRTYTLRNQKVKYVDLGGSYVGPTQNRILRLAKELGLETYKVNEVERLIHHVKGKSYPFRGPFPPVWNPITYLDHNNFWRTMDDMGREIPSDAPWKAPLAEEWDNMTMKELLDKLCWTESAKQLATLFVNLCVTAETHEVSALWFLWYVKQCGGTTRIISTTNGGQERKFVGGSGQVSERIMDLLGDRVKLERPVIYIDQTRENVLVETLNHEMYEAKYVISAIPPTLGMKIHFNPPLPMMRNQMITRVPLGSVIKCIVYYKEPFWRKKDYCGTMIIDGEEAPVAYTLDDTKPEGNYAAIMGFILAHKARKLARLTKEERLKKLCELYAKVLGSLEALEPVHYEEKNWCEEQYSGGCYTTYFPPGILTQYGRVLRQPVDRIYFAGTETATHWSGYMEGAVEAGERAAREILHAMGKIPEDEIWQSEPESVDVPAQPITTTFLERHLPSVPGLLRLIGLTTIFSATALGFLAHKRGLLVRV
Test: MAO-B inhibition, recombinant human enzyme, kynuramine substrate, fluorometric end-point
Type: biochemical
Conditions: mean ± SD of triplicate, racemic mixtures, NI = no inhibition at 100 µM
Experimental: (§1) The in vitro inhibition studies were carried out according to the published procedure, and the inhibition potencies were expressed as the IC50 values (Figure 2). […] A variety of C3 substituents were explored in this study, which included the phenyl, benzyl and 5-methylthiophen-2-yl moieties, while different substituents on the phenyl (e.g., CH3, OCH3, Cl, Br, F, CF3, OCF3, NO2, PhO) were considered.
(§2) The inhibition potencies of the 1,2,4-oxadiazin-5(6H)-one derivatives were determined using commercially available recombinant human MAO-A and MAO-B (Merck) according to the published procedure. Stock solutions of all compounds were prepared in DMSO and added to the enzyme reactions to yield a final concentration of 4% DMSO. […] Kynuramine was used as enzyme substrate for both MAO isoforms and was oxidized to ultimately form 4-hydroxyquinoline, which is a fluorescent metabolite. The concentrations of 4-hydroxyquinoline in the reactions were measured at end-point by fluorescence spectrometry (λex = 310 nm; λem = 400 nm). Using this approach, the rates of kynuramine oxidation by MAO were measured in the presence of different concentrations of the test inhibitors (0.003–100 µM) as well as in the absence of inhibitor. […] IC50 values were estimated from these plots and were reported as the mean ± SD of triplicate determinations.

SMILES	IC50
Cc1ccc(C2=NOCC(=O)N2)cc1 [Compound 3a, 3-(4-Methylphenyl)-4H-1,2,4-oxadiazin-5(6H)-one]	37.2 ± 0.071 µM
O=C1CON=C(c2ccc(Br)cc2)N1 [Compound 3b, 3-(4-Bromophenyl)-4H-1,2,4-oxadiazin-5(6H)-one]	13.6 ± 6.63 µM
O=C1CON=C(c2ccc([N+](=O)[O-])cc2)N1 [Compound 3c, 3-(4-Nitrophenyl)-4H-1,2,4-oxadiazin-5(6H)-one]	24.4 ± 2.48 µM
Cc1ccc(C2=NOCC(=O)N2)s1 [Compound 3d, 3-(5-Methylthiophen-2-yl)-4H-1,2,4-oxadiazin-5(6H)-one]	16.6 ± 1.67 µM
COc1ccc(C2=NOCC(=O)N2)cc1 [Compound 3e, 3-(4-Methoxyphenyl)-4H-1,2,4-oxadiazin-5(6H)-one]	37.6 ± 9.47 µM
COc1ccc(Oc2ccc(C3=NOCC(=O)N3)cc2)cc1 [Compound 3f, 3-(4-(4-Methoxyphenoxy)phenyl)-4H-1,2,4-oxadiazin-5(6H)-one]	3.98 ± 0.518 µM
Cc1ccc(C2=NOC(C)C(=O)N2)cc1 (stereo not drawn) [Compound 4a, 6-Methyl-3-(4-methylphenyl)-4H-1,2,4-oxadiazin-5(6H)-one]	24.5 ± 0.198 µM
CC1ON=C(c2ccc(Br)cc2)NC1=O (stereo not drawn) [Compound 4b, 3-(4-Bromophenyl)-6-methyl-4H-1,2,4-oxadiazin-5(6H)-one]	27.1 ± 3.37 µM
CC1ON=C(c2ccc([N+](=O)[O-])cc2)NC1=O (stereo not drawn) [Compound 4c, 6-Methyl-3-(4-nitrophenyl)-4H-1,2,4-oxadiazin-5(6H)-one]	14.6 ± 0.092 µM
Cc1ccc(C2=NOC(C)C(=O)N2)s1 (stereo not drawn) [Compound 4d, 6-Methyl-3-(5-methylthiophen-2-yl)-4H-1,2,4-oxadiazin-5(6H)-one]	22.3 ± 0.94 µM
COc1ccc(C2=NOC(C)C(=O)N2)cc1 (stereo not drawn) [Compound 4e, 3-(4-Methoxyphenyl)-6-methyl-4H-1,2,4-oxadiazin-5(6H)-one]	20 ± 0.643 µM
CCC1ON=C(c2ccc(C)cc2)NC1=O (stereo not drawn) [Compound 5a, 6-Ethyl-3-(4-methylphenyl)-4H-1,2,4-oxadiazin-5(6H)-one]	4.28 ± 0.318 µM
CCC1ON=C(c2ccc(Br)cc2)NC1=O (stereo not drawn) [Compound 5b, 3-(4-Bromophenyl)-6-ethyl-4H-1,2,4-oxadiazin-5(6H)-one]	5.11 ± 0.308 µM
CCC1ON=C(c2ccc([N+](=O)[O-])cc2)NC1=O (stereo not drawn) [Compound 5c, 6-Ethyl-3-(4-nitrophenyl)-4H-1,2,4-oxadiazin-5(6H)-one]	21 ± 4.09 µM
CCC1ON=C(c2ccc(C)s2)NC1=O (stereo not drawn) [Compound 5d, 6-Ethyl-3-(5-methylthiophen-2-yl)-4H-1,2,4-oxadiazin-5(6H)-one]	6.14 ± 0.137 µM
CCC1ON=C(c2ccc(OC)cc2)NC1=O (stereo not drawn) [Compound 5e, 6-Ethyl-3-(4-methoxyphenyl)-4H-1,2,4-oxadiazin-5(6H)-one]	6.22 ± 0.596 µM
CCC1ON=C(c2ccccc2)NC1=O (stereo not drawn) [Compound 5g, 6-Ethyl-3-phenyl-4H-1,2,4-oxadiazin-5(6H)-one]	> 100 µM
CCC1ON=C(c2ccc(F)cc2)NC1=O (stereo not drawn) [Compound 5h, 6-Ethyl-3-(4-fluorophenyl)-4H-1,2,4-oxadiazin-5(6H)-one]	30.7 ± 2.02 µM

Tested on: not given
Test: not given
Conditions: not given

SMILES	melting point
Cc1ccc(C2=NOCC(=O)N2)cc1 [Compound 3a, 3-(4-Methylphenyl)-4H-1,2,4-oxadiazin-5(6H)-one]	140 to 141 °C
O=C1CON=C(c2ccc([N+](=O)[O-])cc2)N1 [Compound 3c, 3-(4-Nitrophenyl)-4H-1,2,4-oxadiazin-5(6H)-one]	248 to 250 °C
Cc1ccc(C2=NOCC(=O)N2)s1 [Compound 3d, 3-(5-Methylthiophen-2-yl)-4H-1,2,4-oxadiazin-5(6H)-one]	216 to 218 °C
COc1ccc(C2=NOCC(=O)N2)cc1 [Compound 3e, 3-(4-Methoxyphenyl)-4H-1,2,4-oxadiazin-5(6H)-one]	188 to 190 °C
CC1ON=C(c2ccc([N+](=O)[O-])cc2)NC1=O (stereo not drawn) [Compound 4c, 6-Methyl-3-(4-nitrophenyl)-4H-1,2,4-oxadiazin-5(6H)-one]	247 to 249 °C
Cc1ccc(C2=NOC(C)C(=O)N2)s1 (stereo not drawn) [Compound 4d, 6-Methyl-3-(5-methylthiophen-2-yl)-4H-1,2,4-oxadiazin-5(6H)-one]	167 to 169 °C
CCC1ON=C(c2ccc([N+](=O)[O-])cc2)NC1=O (stereo not drawn) [Compound 5c, 6-Ethyl-3-(4-nitrophenyl)-4H-1,2,4-oxadiazin-5(6H)-one]	177 to 179 °C
CCC1ON=C(c2ccc(C)s2)NC1=O (stereo not drawn) [Compound 5d, 6-Ethyl-3-(5-methylthiophen-2-yl)-4H-1,2,4-oxadiazin-5(6H)-one]	151 to 153 °C
CCC1ON=C(c2ccc(OC)cc2)NC1=O (stereo not drawn) [Compound 5e, 6-Ethyl-3-(4-methoxyphenyl)-4H-1,2,4-oxadiazin-5(6H)-one]	139 to 141 °C
CCC1ON=C(c2ccc(F)cc2)NC1=O (stereo not drawn) [Compound 5h, 6-Ethyl-3-(4-fluorophenyl)-4H-1,2,4-oxadiazin-5(6H)-one]	153 to 155 °C

Target: T2, MAO-A (Homo sapiens, UniProt P21397)
T2 construct: purchased Merck
T2 sequence (P21397 1-527): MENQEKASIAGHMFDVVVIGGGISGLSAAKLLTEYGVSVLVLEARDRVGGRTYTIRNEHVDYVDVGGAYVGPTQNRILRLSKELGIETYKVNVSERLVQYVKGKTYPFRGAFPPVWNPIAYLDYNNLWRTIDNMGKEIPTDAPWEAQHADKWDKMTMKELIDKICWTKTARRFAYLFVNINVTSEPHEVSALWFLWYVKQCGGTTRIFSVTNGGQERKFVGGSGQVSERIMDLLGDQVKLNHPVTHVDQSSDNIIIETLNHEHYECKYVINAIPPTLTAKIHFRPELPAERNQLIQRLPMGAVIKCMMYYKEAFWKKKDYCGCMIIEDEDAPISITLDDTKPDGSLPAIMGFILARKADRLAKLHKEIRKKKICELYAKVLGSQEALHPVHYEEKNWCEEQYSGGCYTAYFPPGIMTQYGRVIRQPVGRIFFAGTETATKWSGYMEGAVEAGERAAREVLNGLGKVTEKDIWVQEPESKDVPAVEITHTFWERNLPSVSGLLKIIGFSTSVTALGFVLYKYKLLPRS
Test: Mode of MAO-A inhibition, Lineweaver-Burk plots
Type: biochemical
Conditions: Lineweaver-Burk plots
Experimental: To investigate the mode of MAO inhibition, Lineweaver–Burk plots were constructed for the two inhibitors of the respective MAO isoforms, 3f and 5f. For each inhibitor, six plots were constructed using a range of eight substrate concentrations (15–250 µM) for each plot. The inhibitor concentrations were selected to bracket the IC50 values. […] For each isoform, a plot was also constructed in the absence of the inhibitor.
To investigate the mode of inhibition, Lineweaver–Burk plots were constructed. A set of six plots were constructed for each test inhibitor using five inhibitor concentrations that bracketed the IC50 value as well as one plot in the absence of inhibitor. For each line, eight different concentrations of kynuramine (15–250 µM) were used. Subsequently, the slopes of the Lineweaver–Burk plots were plotted versus inhibitor concentration, and the Ki values were estimated from the x-intercept (Ki = −x-intercept).

SMILES	mode of MAO-A inhibition
COc1ccc(Oc2ccc(C3=NOCC(=O)N3)cc2)cc1 [Compound 3f, 3-(4-(4-Methoxyphenoxy)phenyl)-4H-1,2,4-oxadiazin-5(6H)-one]	competitive inhibition

Same assay, conditions: from replot of Lineweaver-Burk slopes versus inhibitor concentration (1 to 5 µM); kynuramine 15–250 µM

SMILES	Ki
COc1ccc(Oc2ccc(C3=NOCC(=O)N3)cc2)cc1 [Compound 3f, 3-(4-(4-Methoxyphenoxy)phenyl)-4H-1,2,4-oxadiazin-5(6H)-one]	1.3 µM

Target: T2, MAO-A
Test: MAO-A inhibition, recombinant human enzyme, kynuramine substrate, fluorometric end-point
Type: biochemical
Conditions: mean ± SD of triplicate, racemic mixtures, NI = no inhibition at 100 µM
Experimental: as §1, §2

SMILES	IC50
Cc1ccc(C2=NOCC(=O)N2)cc1 [Compound 3a, 3-(4-Methylphenyl)-4H-1,2,4-oxadiazin-5(6H)-one]	36.8 ± 1.83 µM
O=C1CON=C(c2ccc(Br)cc2)N1 [Compound 3b, 3-(4-Bromophenyl)-4H-1,2,4-oxadiazin-5(6H)-one]	14.2 ± 0.94 µM
O=C1CON=C(c2ccc([N+](=O)[O-])cc2)N1 [Compound 3c, 3-(4-Nitrophenyl)-4H-1,2,4-oxadiazin-5(6H)-one]	17.3 ± 0.594 µM
Cc1ccc(C2=NOCC(=O)N2)s1 [Compound 3d, 3-(5-Methylthiophen-2-yl)-4H-1,2,4-oxadiazin-5(6H)-one]	34.6 ± 5.47 µM
COc1ccc(C2=NOCC(=O)N2)cc1 [Compound 3e, 3-(4-Methoxyphenyl)-4H-1,2,4-oxadiazin-5(6H)-one]	27.1 ± 3.98 µM
COc1ccc(Oc2ccc(C3=NOCC(=O)N3)cc2)cc1 [Compound 3f, 3-(4-(4-Methoxyphenoxy)phenyl)-4H-1,2,4-oxadiazin-5(6H)-one]	3.75 ± 0.212 µM
Cc1ccc(C2=NOC(C)C(=O)N2)cc1 (stereo not drawn) [Compound 4a, 6-Methyl-3-(4-methylphenyl)-4H-1,2,4-oxadiazin-5(6H)-one]	67 ± 0.007 µM
CC1ON=C(c2ccc(Br)cc2)NC1=O (stereo not drawn) [Compound 4b, 3-(4-Bromophenyl)-6-methyl-4H-1,2,4-oxadiazin-5(6H)-one]	37.4 ± 4.18 µM
CC1ON=C(c2ccc([N+](=O)[O-])cc2)NC1=O (stereo not drawn) [Compound 4c, 6-Methyl-3-(4-nitrophenyl)-4H-1,2,4-oxadiazin-5(6H)-one]	58.5 ± 4.17 µM
Cc1ccc(C2=NOC(C)C(=O)N2)s1 (stereo not drawn) [Compound 4d, 6-Methyl-3-(5-methylthiophen-2-yl)-4H-1,2,4-oxadiazin-5(6H)-one]	46.2 ± 9.22 µM
COc1ccc(C2=NOC(C)C(=O)N2)cc1 (stereo not drawn) [Compound 4e, 3-(4-Methoxyphenyl)-6-methyl-4H-1,2,4-oxadiazin-5(6H)-one]	51.2 ± 15.1 µM
CCC1ON=C(c2ccc(C)cc2)NC1=O (stereo not drawn) [Compound 5a, 6-Ethyl-3-(4-methylphenyl)-4H-1,2,4-oxadiazin-5(6H)-one]	> 100 µM
CCC1ON=C(c2ccc(Br)cc2)NC1=O (stereo not drawn) [Compound 5b, 3-(4-Bromophenyl)-6-ethyl-4H-1,2,4-oxadiazin-5(6H)-one]	35.4 ± 1.54 µM
CCC1ON=C(c2ccc([N+](=O)[O-])cc2)NC1=O (stereo not drawn) [Compound 5c, 6-Ethyl-3-(4-nitrophenyl)-4H-1,2,4-oxadiazin-5(6H)-one]	57.9 ± 9.84 µM
CCC1ON=C(c2ccc(C)s2)NC1=O (stereo not drawn) [Compound 5d, 6-Ethyl-3-(5-methylthiophen-2-yl)-4H-1,2,4-oxadiazin-5(6H)-one]	58.1 ± 5.28 µM
CCC1ON=C(c2ccc(OC)cc2)NC1=O (stereo not drawn) [Compound 5e, 6-Ethyl-3-(4-methoxyphenyl)-4H-1,2,4-oxadiazin-5(6H)-one]	44.1 ± 6.05 µM
CCC1ON=C(c2ccccc2)NC1=O (stereo not drawn) [Compound 5g, 6-Ethyl-3-phenyl-4H-1,2,4-oxadiazin-5(6H)-one]	> 100 µM
CCC1ON=C(c2ccc(F)cc2)NC1=O (stereo not drawn) [Compound 5h, 6-Ethyl-3-(4-fluorophenyl)-4H-1,2,4-oxadiazin-5(6H)-one]	93 ± 3.23 µM
